Experiment [1] addresses T1, Human indoleamine 2,3-dioxygenase (IDO) (Homo sapiens, UniProt P14902).
T1 construct: purchased BPS Bioscience Inc
The experiment is described as follows: Enzymatic test for IDO activity inhibition. Particulars: 40 nM IDO enzyme, 0.2 mM L-tryptophan, 60 minutes at 30° C. In kind it is biochemical. On the procedure:
Human indoleamine 2,3-dioxygenase (IDO) was purchased from BPS Bioscience Inc. The enzymatic reaction of idoleamine 2,3-dioxygenase (IDO) was performed in a 96-well plate with a reaction volume of 20 μL. The reaction conditions were: 40 nM IDO enzyme, 0.2 mM L-tryptophan, 50 mM KPB (pH 6.5) buffer, 20 mM sodium L-L-ascorbate, 10 μM methylene blue, 0.2 mg/mL catalase, different concentrations of compounds containing <1% dimethyl sulfoxide. After reacting for 60 minutes at 30° C., 5 μL of 30% (w/v) trichloroacetic acid (in 50 mM KPB buffer) weres added to each well. The plate was incubated for 30 minutes at 50° C. to hydrolyze N-formyl-kynurenine to kynurenine. 25 μL of 2% (w/v) p-(dimethylamino)benzaldehyde (p-DMBA)/glacial acetic acid solution were added to each well. The absorbance at 490 nm was read on a BioTek Synergy H1 microplate reader […].
The stock solution of the test compound was prepared to 10 mM with dimethyl sulfoxide, diluted with dimethyl sulfoxide to the highest concentration of the test during the experiment, then diluted in 1:3 gradient, and generally diluted to 8 to 10 concentration points. Duplicate wells were set for each concentration point, and one reference compound was included in each experiment. The original data of the absorbance at 490 nm read on a microplate reader were analyzed. The inhibition of IDO enzyme activity was calculated at different concentrations of the test compound. The half-inhibitory concentration IC50 value of the compound was obtained by non-linear fitting analysis of inhibition percentage data by GraphPad Prism software.

Experiment [2] has as its target T2, indoleamine 2,3-dioxygenase (IDO) in HeLa cells (Homo sapiens, UniProt P14902).
T2 construct: Interferon γ induced the expression of IDO in HeLa cells; host or cells: HeLa cells induced with interferon γ
The experiment is described as follows: Cell model test for IDO activity inhibition (interferon γ induced HeLa cells). Particulars: interferon γ 50 ng/mL, 24 hours, read-out: Cytological Test IC50. The format is cell-based. On the procedure: Interferon γ induced the expression of IDO in HeLa cells. This model was used to test the inhibitory activity of compounds on indoleamine 2,3-dioxygenase (IDO). The culture medium of HeLa cells (ATCC) was phenol red-free RPMI-1640 containing 100 μM L-tryptophan. The stock solution of the test compound was prepared to 10 mM with dimethyl sulfoxide, and diluted with dimethyl sulfoxide to the highest concentration of the test during the experiment, then diluted in three-fold gradient, and generally diluted to 8 to 10 concentration points. Duplicate wells were set for each concentration point. The final concentration of DMSO was 0.5%, and internal reference compound was included in each experiment.
The procedure of the experiment was as follows: 20,000 HeLa cells (ATCC) per well were added on a 96-well culture plate and incubated overnight. After 24 hours, interferon γ (final concentration of 50 ng/mL) and different concentrations of the test compound and the internal reference compound were added to the incubated cells. After 24 hours, 140 μL of the supernatant/well was transferred to a new 96-well plate, and 10 μL of 6.1 N trichloroacetic acid was added to each well. The plate was incubated for 30 minutes at 50° C. to hydrolyze N-formyl-kynurenine to kynurenine. The reaction mixture was centrifuged at 2500 rpm for 10 minutes to remove the precipitate, and the supernatant (100 μL) was transferred to another new 96-well plate. 100 μL of 2% (W/V) p-(dimethylamino)benzaldehyde (p-DMBA)/glacial acetic acid solution was added to each well. The absorbance at 490 nm was read on a BioTek Synergy H1 microplate reader […].
The original data of the absorbance at 490 nm read on a microplate reader were analyzed. The inhibition of IDO enzyme activity was calculated at different concentrations of the test compound. The half-inhibitory concentration IC50 value of the compound was obtained by non-linear fitting analysis of inhibition percentage data by GraphPad Prism software.

T1 sequence (P14902 whole entry): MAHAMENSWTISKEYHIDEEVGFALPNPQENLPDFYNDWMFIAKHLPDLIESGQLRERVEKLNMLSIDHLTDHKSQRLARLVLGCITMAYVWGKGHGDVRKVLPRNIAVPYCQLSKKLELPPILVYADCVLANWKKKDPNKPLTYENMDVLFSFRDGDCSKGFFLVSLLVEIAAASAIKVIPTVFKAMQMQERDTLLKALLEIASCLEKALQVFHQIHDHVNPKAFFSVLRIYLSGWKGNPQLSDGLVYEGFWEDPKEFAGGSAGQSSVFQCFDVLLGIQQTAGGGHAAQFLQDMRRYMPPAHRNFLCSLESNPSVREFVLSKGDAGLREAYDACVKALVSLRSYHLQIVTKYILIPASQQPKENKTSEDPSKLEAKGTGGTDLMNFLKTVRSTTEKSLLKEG
T2 sequence (P14902 whole entry): as above

The IC50 is the concentration needed to halve the response being measured. Consider `NS(=O)(=O)NC1CCC(Nc2nonc2/C(=N/O)Nc2ccc(F)c(Br)c2)CC1` (stereo not drawn) [Example 10, (Z)—N-(3-bromo-4-fluorophenyl)-N′-hydroxy-4-((4-(sulfamoylamino)cyclohexyl)amino)-1,2,5-oxadiazole-3-carboximidamide], for which the IC50 in experiment [1] came out at 19 nM; in experiment [2], 37 nM.

As to `CCNC(=O)C(=O)NCCNc1nonc1/C(=N/O)Nc1ccc(F)c(Br)c1` [Example 3, (Z)—N^1-(2-((4-(N-(3-bromo-4-fluorophenyl)-N′-hydroxycarbamimidoyl)-1,2,5-oxadiazol-3-yl)amino)ethyl)-N^2-ethyloxalamide], the IC50 amounted to 56 nM in experiment [1] and 20 nM in experiment [2].

Regarding `Cc1ccc(S(=O)(=O)N=S(C)(=O)NCCNc2nonc2C(=NO)Nc2ccc(F)c(Br)c2)cc1` (stereo not drawn) [Example 13, (Z)—N-(3-bromo-4-fluorophenyl)-N′-hydroxy-4-{[2-({S-methyl-N-[(4-methylphenyl)sulfonyl]sulfonimidoyl}amino)ethyl]amino}-1,2,5-oxadiazole-3-carboximidamide], the IC50 stood at 64 nM in experiment [1] and 47 nM in experiment [2].

As for `CN=S(C)(=O)CCNc1nonc1/C(=N/O)Nc1ccc(F)c(Br)c1` (stereo not drawn) [Example 16, (Z)—N-(3-bromo-4-fluorophenyl)-4-((2-(N,S-dimethylsulfonimidoyl)ethyl)amino)-N′-hydroxy-1,2,5-oxadiazole-3-carboximidamide], the IC50 in experiment [1] stood at 66 nM; in experiment [2], 19 nM.

For the compound `O=C(NCCNc1nonc1/C(=N/O)Nc1ccc(F)c(Br)c1)C(=O)NC1CC1` [Example 7, (Z)—N^1-(2-((4-(N-(3-bromo-4-fluorophenyl)-N′-hydroxycarbamimidoyl)-1,2,5-oxadiazol-3-yl)amino)ethyl)-N^2-cyclopropyloxalamide], the IC50 in experiment [1] and in experiment [2] was 53 nM in each case.

On to `CNC(=O)C(=O)NCCNc1nonc1/C(=N/O)Nc1ccc(F)c(Br)c1` [Example 2, (Z)—N^1-(2-((4-(N-(3-bromo-4-fluorophenyl)-N′-hydroxycarbamimidoyl)-1,2,5-oxadiazol-3-yl)amino)ethyl)-N^2-methyloxalamide], for which the IC50 stood at 71 nM in experiment [1] and 18 nM in experiment [2].

With `CCS(=O)(CCNc1nonc1/C(=N/O)Nc1ccc(F)c(Br)c1)=NC` (stereo not drawn) [Example 17, (Z)—N-(3-bromo-4-fluorophenyl)-N′-hydroxy-4-((2-(N-methylethylsulfonimidoyl)ethyl)amino)-1,2,5-oxadiazole-3-carboximidamide], the IC50 in experiment [1] stood at 75 nM; in experiment [2] it was 16 nM.

In the case of `O=C(NO)C(=O)NCCNc1nonc1/C(=N/O)Nc1ccc(F)c(Br)c1` [Example 8, (Z)—N^1-(2-((4-(N-(3-bromo-4-fluorophenyl)-N′-hydroxycarbamimidoyl)-1,2,5-oxadiazol-3-yl)amino)ethyl)-N^2-hydroxyoxalamide], the figures for the IC50 in experiment [1] and in experiment [2] were 76 nM and 33 nM, respectively.

Consider `NS(=O)(=O)NC1CC(Nc2nonc2/C(=N/O)Nc2ccc(F)c(Br)c2)C1` (stereo not drawn) [Example 11, (Z)—N-(3-bromo-4-fluorophenyl)-N′-hydroxy-4-((3-(sulfamoylamino)cyclobutyl)amino)-1,2,5-oxadiazole-3-carboximidamide], for which the IC50 in experiment [1] was 42 nM; in experiment [2] it was 38 nM.

The values above are taken from patent US20190040025A1, “INDOLEAMINE 2,3-DIOXYGENASE INHIBITOR, PREPARATION METHOD THEREFOR, AND APPLICATION” (Jiangsu Hansoh Pharmaceutical Group Co., Ltd., priority 2016, published 2019).
